# Experimental data: patent US8178552B2, “7-Azaindole derivatives and their use in the inhibition of c-Jun N-terminal kinase” (Eisai R&D Management Co., Ltd., priority 2008, dated 2012)
# Molecular target: JNK3 (Homo sapiens, UniProt P53779)
# Assay: JNK3 SPA assay
# Format: biochemical
# Conditions: 3.33 μM ATP, GST-c-Jun substrate; read-out: IC50 against JNK3
# Method: JNK1, JNK2, JNK3—SPA Assay
# JNK1, JNK2, JNK3—SPA Assay • 1. Compound is dissolved in DMSO to a convenient concentration and this is diluted in 10% DMSO to a five times concentrate of the desired starting concentration (frequently 1:100). • 2. 10 μl of 500 mM EDTA is added to alternative wells of the Opti-plate row, which will receive kinase reaction plus DMSO. This creates the negative control. • 3. For the JNK2 and JNK3 assay, compounds are prepared in six 2-fold dilutions with water and each concentration is tested in duplicate. For the JNK1 assay compounds are prepared in four 5-fold dilutions with water which are tested in triplicate. Controls are treated identically. • 4. 20 μl per well of each compound concentration is transferred to an Opti-plate, in duplicate. • 5. 30 μl (JNK2/3 SPA) or 50 μl (JNK1 SPA) of substrate solution (25 mM HEPES pH 7.5, 10 mM magnesium acetate with 3.33 μM ATP (JNK2/3) or 2 μM ATP (JNK1), approximately 7.5 kBq [γ-^33P] ATP, GST-c-Jun, in water) is added to each well. • 6. 50 μl (JNK2/3 SPA) or 30 μl (JNK1 SPA) of kinase solution (JNK in 25 mM HEPES pH 7.5, 10 mM Mg Acetate) is added to each well.
# • 7. The plate is incubated for 30 minutes at room temperature. • 8. 100 μl of bead/stop solution is added to each well (5 mg/ml glutathione-PVT-SPA beads, 40 mM ATP in PBS). • 9. Plates are sealed and incubated for 30 minutes at room temperature, centrifuged for 10 minutes at 2500 g and counted. • 10. The IC50 values are calculated as the concentration of the compound being tested at which the phosphorylation of c-Jun is decreased to 50% of the control value.
# Sequence of JNK3 (P53779 whole entry, species assumed): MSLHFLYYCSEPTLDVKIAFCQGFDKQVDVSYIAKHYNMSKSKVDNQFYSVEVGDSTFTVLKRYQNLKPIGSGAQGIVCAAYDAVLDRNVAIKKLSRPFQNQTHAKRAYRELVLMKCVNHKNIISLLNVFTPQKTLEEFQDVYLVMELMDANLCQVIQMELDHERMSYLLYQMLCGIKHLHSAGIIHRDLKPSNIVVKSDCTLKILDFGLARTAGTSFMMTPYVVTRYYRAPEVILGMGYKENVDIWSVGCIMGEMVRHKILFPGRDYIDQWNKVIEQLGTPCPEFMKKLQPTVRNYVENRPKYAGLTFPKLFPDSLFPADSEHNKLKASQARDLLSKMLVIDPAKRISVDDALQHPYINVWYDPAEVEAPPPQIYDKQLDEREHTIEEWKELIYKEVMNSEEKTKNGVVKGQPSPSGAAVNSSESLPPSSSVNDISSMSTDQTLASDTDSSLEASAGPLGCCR
row,IC50,SMILES
1,302 nM,"CCN(C)[C@H]1CC[C@H](c2cnc3[nH]cc(-c4cnn(C)c4)c3c2)CC1 [Compound I-109, (1r,4r)-N-ethyl-N-methyl-4-(3-(1-methyl-1H-pyrazol-4-yl)-1H-pyrrolo[2,3-b]pyridin-5-yl)cyclohexanamine]"
2,355 nM,"CCN(C)[C@H]1CC[C@@H](c2cnc3[nH]cc(-c4cnn(C)c4)c3c2)CC1 [Compound I-110, (1s,4s)-N-ethyl-N-methyl-4-(3-(1-methyl-1H-pyrazol-4-yl)-1H-pyrrolo[2,3-b]pyridin-5-yl)cyclohexanamine]"
3,263 nM,"COCCN[C@H]1CC[C@H](c2cnc3[nH]cc(-c4cnn(C)c4)c3c2)CC1 [Compound I-111, (1r,4r)-N-(2-methoxyethyl)-4-(3-(1-methyl-1H-pyrazol-4-yl)-1H-pyrrolo[2,3-b]pyridin-5-yl)cyclohexanamine]"
4,347 nM,"CCCN(C)[C@H]1CC[C@H](c2cnc3[nH]cc(-c4cnn(C)c4)c3c2)CC1 [Compound I-115, (1r,4r)-N-methyl-4-(3-(1-methyl-1H-pyrazol-4-yl)-1H-pyrrolo[2,3-b]pyridin-5-yl)-N-propylcyclohexanamine]"
5,309 nM,"CCCN(C)[C@H]1CC[C@@H](c2cnc3[nH]cc(-c4cnn(C)c4)c3c2)CC1 [Compound I-116, (1s,4s)-N-methyl-4-(3-(1-methyl-1H-pyrazol-4-yl)-1H-pyrrolo[2,3-b]pyridin-5-yl)-N-propylcyclohexanamine]"
6,257 nM,"COCCN(C)[C@H]1CC[C@@H](c2cnc3[nH]cc(-c4cnn(C)c4)c3c2)CC1 [Compound I-118, (1s,4s)-N-(2-methoxyethyl)-N-methyl-4-(3-(1-methyl-1H-pyrazol-4-yl)-1H-pyrrolo[2,3-b]pyridin-5-yl)cyclohexanamine]"
7,257 nM,"CCOCCN[C@H]1CC[C@H](c2cnc3[nH]cc(-c4cnn(C)c4)c3c2)CC1 [Compound I-119, (1r,4r)-N-(2-ethoxyethyl)-4-(3-(1-methyl-1H-pyrazol-4-yl)-1H-pyrrolo[2,3-b]pyridin-5-yl)cyclohexanamine]"
8,398 nM,"Cn1cc(-c2c[nH]c3ncc([C@H]4CC[C@H](NC5CCOCC5)CC4)cc23)cn1 [Compound I-127, N-((1 r,4r)-4-(3-(1-methyl-1H-pyrazol-4-yl)-1H-pyrrolo[2,3-b]pyridin-5-yl)cyclohexyl)tetrahydro-2H-pyran-4-amine]"
9,794 nM,"Cn1cc(-c2c[nH]c3ncc([C@H]4CC[C@@H](NC5CCOCC5)CC4)cc23)cn1 [Compound I-128, N-((1s,4s)-4-(3-(1-methyl-1H-pyrazol-4-yl)-1H-pyrrolo[2,3-b]pyridin-5-yl)cyclohexyl)tetrahydro-2H-pyran-4-amine]"
10,191 nM,"Cn1cc(-c2c[nH]c3ncc([C@H]4CC[C@H](NCCO)CC4)cc23)cn1 [Compound I-129, 2-((1r,4r)-4-(3-(1-methyl-1H-pyrazol-4-yl)-1H-pyrrolo[2,3-b]pyridin-5-yl)cyclohexylamino)ethanol]"
11,692 nM,"Cn1cc(-c2c[nH]c3ncc([C@H]4CC[C@@H](NCCO)CC4)cc23)cn1 [Compound I-130, 2-((1s,4s)-4-(3-(1-methyl-1H-pyrazol-4-yl)-1H-pyrrolo[2,3-b]pyridin-5-yl)cyclohexylamino)ethanol]"

# More lines, now with the values behind:
row,SMILES,IC50
1,"CCOCCN(CC)[C@H]1CC[C@H](c2cnc3[nH]cc(-c4cnn(C)c4)c3c2)CC1 [Compound I-107, (1r,4r)-N-(2-ethoxyethyl)-N-ethyl-4-(3-(1-methyl-1H-pyrazol-4-yl)-1H-pyrrolo[2,3-b]pyridin-5-yl)cyclohexanamine]",288 nM
2,"CCOCCN(CC)[C@H]1CC[C@@H](c2cnc3[nH]cc(-c4cnn(C)c4)c3c2)CC1 [Compound I-108, (1s,4s)-N-(2-ethoxyethyl)-N-ethyl-4-(3-(1-methyl-1H-pyrazol-4-yl)-1H-pyrrolo[2,3-b]pyridin-5-yl)cyclohexanamine]",204 nM
3,"CCCN(CC)[C@H]1CC[C@H](c2cnc3[nH]cc(-c4cnn(C)c4)c3c2)CC1 [Compound I-113, (1r,4r)-N-ethyl-4-(3-(1-methyl-1H-pyrazol-4-yl)-1H-pyrrolo[2,3-b]pyridin-5-yl)-N-propylcyclohexanamine]",316 nM
4,"CCCN(CC)[C@H]1CC[C@@H](c2cnc3[nH]cc(-c4cnn(C)c4)c3c2)CC1 [Compound I-114, (1s,4s)-N-ethyl-4-(3-(1-methyl-1H-pyrazol-4-yl)-1H-pyrrolo[2,3-b]pyridin-5-yl)-N-propylcyclohexanamine]",224 nM
5,"COCCN(C)[C@H]1CC[C@H](c2cnc3[nH]cc(-c4cnn(C)c4)c3c2)CC1 [Compound I-117, (1r,4r)-N-(2-methoxyethyl)-N-methyl-4-(3-(1-methyl-1H-pyrazol-4-yl)-1H-pyrrolo[2,3-b]pyridin-5-yl)cyclohexanamine]",288 nM
6,"CCCN(CCOC)[C@H]1CC[C@H](c2cnc3[nH]cc(-c4cnn(C)c4)c3c2)CC1 [Compound I-121, (1r,4r)-N-(2-methoxyethyl)-4-(3-(1-methyl-1H-pyrazol-4-yl)-1H-pyrrolo[2,3-b]pyridin-5-yl)-N-propylcyclohexanamine]",363 nM
7,"CCCN(CCOC)[C@H]1CC[C@@H](c2cnc3[nH]cc(-c4cnn(C)c4)c3c2)CC1 [Compound I-122, (1s,4s)-N-(2-methoxyethyl)-4-(3-(1-methyl-1H-pyrazol-4-yl)-1H-pyrrolo[2,3-b]pyridin-5-yl)-N-propylcyclohexanamine]",295 nM
8,"CCN(CCOC)[C@H]1CC[C@H](c2cnc3[nH]cc(-c4cnn(C)c4)c3c2)CC1 [Compound I-123, (1r,4r)-N-ethyl-N-(2-methoxyethyl)-4-(3-(1-methyl-1H-pyrazol-4-yl)-1H-pyrrolo[2,3-b]pyridin-5-yl)cyclohexanamine]",323 nM
9,"CCN(CCOC)[C@H]1CC[C@@H](c2cnc3[nH]cc(-c4cnn(C)c4)c3c2)CC1 [Compound I-124, (1s,4s)-N-ethyl-N-(2-methoxyethyl)-4-(3-(1-methyl-1H-pyrazol-4-yl)-1H-pyrrolo[2,3-b]pyridin-5-yl)cyclohexanamine]",257 nM
10,"CCCN(CCO)[C@H]1CC[C@H](c2cnc3[nH]cc(-c4cnn(C)c4)c3c2)CC1 [Compound I-125, 2-(((1r,4r)-4-(3-(1-methyl-1H-pyrazol-4-yl)-1H-pyrrolo[2,3-b]pyridin-5-yl)cyclohexyl)(propyl)amino)ethanol]",263 nM
11,"CCCN(CCO)[C@H]1CC[C@@H](c2cnc3[nH]cc(-c4cnn(C)c4)c3c2)CC1 [Compound I-126, 2-(((1s,4s)-4-(3-(1-methyl-1H-pyrazol-4-yl)-1H-pyrrolo[2,3-b]pyridin-5-yl)cyclohexyl)(propyl)amino)ethanol]",281 nM
12,"Cn1cc(-c2c[nH]c3ncc(C4=CC5CC[C@]4(C)C5(C)C)cc23)cn1 [Compound I-138, 3-(1-methyl-1H-pyrazol-4-yl)-5-((1R)-1,7,7-trimethylbicyclo[2.2.1]hept-2-en-2-yl)-1H-pyrrolo[2,3-b]pyridine]",148 nM
13,"Cn1cc(-c2c[nH]c3ncc(C4CC5CC4C(CO)C5CO)cc23)cn1 (stereo not shown) [Compound I-140, (5-(3-(1-methyl-1H-pyrazol-4-yl)-1H-pyrrolo[2,3-b]pyridin-5-yl)bicyclo[2.2.1]heptane-2,3-diyl)dimethanol]",87 nM
14,"Cn1cc(-c2c[nH]c3ncc(C4CCCC5C4C5(C)C)cc23)cn1 (stereo not shown) [Compound I-142, 5-(7,7-dimethylbicyclo[4.1.0]heptan-2-yl)-3-(1-methyl-1H-pyrazol-4-yl)-1H-pyrrolo[2,3-b]pyridine]",155 nM
15,"CN1C2C=C(c3cnc4[nH]cc(-c5cnn(C)c5)c4c3)CC1CC2 (stereo not shown) [Compound I-143, 3-(1-methyl-1H-pyrazol-4-yl)-5-(8-methyl-8-azabicyclo[3.2.1]oct-3-en-3-yl)-1H-pyrrolo[2,3-b]pyridine]",> 500 nM
16,"Cn1cc(-c2c[nH]c3ncc(C4=CC5CC(=O)CC(C4)C5)cc23)cn1 (stereo not shown) [Compound I-145, 7-(3-(1-methyl-1H-pyrazol-4-yl)-1H-pyrrolo[2,3-b]pyridin-5-yl)bicyclo[3.3.1]non-6-en-3-one]",167 nM
17,"Cn1cc(-c2c[nH]c3ncc(C4=CC5CC(O)CC(C4)C5)cc23)cn1 (stereo not shown) [Compound I-146, 7-(3-(1-methyl-1H-pyrazol-4-yl)-1H-pyrrolo[2,3-b]pyridin-5-yl)bicyclo[3.3.1]non-6-en-3-ol]",832 nM
18,"Cn1cc(-c2c[nH]c3ncc(C4=CC5CC(O)CC(C4)C5)cc23)cn1 (stereo not shown) [Compound I-147, 7-(3-(1-methyl-1H-pyrazol-4-yl)-1H-pyrrolo[2,3-b]pyridin-5-yl)bicyclo[3.3.1]non-6-en-3-ol]",> 1000 nM
19,"CN1CCN(C2CC3C=C(c4cnc5[nH]cc(-c6cnn(C)c6)c5c4)CC(C3)C2)CC1 (stereo not drawn) [Compound I-149, trans-3-(1-methyl-1H-pyrazol-4-yl)-5-(7-(4-methylpiperazin-1-yl)bicyclo[3.3.1]non-2-en-3-yl)-1H-pyrrolo[2,3-b]pyridine]",> 500 nM
20,CN1C2CC3CC(C2)C(O)C1(c1cnc2[nH]cc(-c4cnn(C)c4)c2c1)C3 (stereo not shown) [Compound I-153],288 nM
